Laboratory results published in patent US20250281513A1, “USE OF PS[…] TREAT […]” (priority 2021, published 2025).
Like-named read-outs stand apart in the source and are kept apart here.

Assays:
ABCF1 [1] = assay type: cell-based, murine; conditions: RAW264.7, 10 nM, 100 nM, 500 nM, 2 hours post treatment, normalized to GAPDH (FIG. 2)
Method: • 1. Macrophage cell line RAW264.7 (ATCC) were grown to 80% confluency in growth media (DMEM+10% FBS+glutamine). • 2. Dilutions of the drugs were made at desired final concentrations for a Dose response experiment. The concentrations' used for this experiment are: 10 nM, 100 nM, 500 nM for Psilocin, Psylocibin, 4-Acetoxy-N, N-dimthyltryptamine, O-Acetyl Psilocin Fumerate, and 4-acetoxyindole. • 3. Untreated cells were used as negative control and Escitalopram at 0.3 mM was used as a positive control to activate ABCF1 expression for all the experiments. Analysis by qPCR:
• 1. 2 hours post treatment with drugs, the reaction was stopped by removing the media with the drug. Cells were then collected and RNA was isolated from these. • 2. After checking the quality of the RNA, cDNA was generated and qPCR was run with ABCF1 primers as the target gene and GAPDH as the house keeping gene. • 3. Normalized against the expression level of GAPDH, the fold change expression level of ABCF1 was calculated and tabulated for all treatment conditions.

[2] = tested on: amyloid precursor protein (APP); experiment: Down regulation of APP in RAW cells by psychedelic drugs (Example 5); assay type: cell-based; conditions: post 2 hours treatment (FIG. 9)
ABCF1 [3] = experiment: Escitalopram induces ABCF1 in a macrophage cell line (real time RT-PCR); assay type: cell-based; conditions: RAW macrophages, 0.3 mM, 1 hour
Method: RAW macrophages were plated at 1×10^5 cells/well and cultured for 2 days. The cells were incubated with 0.3 mM Escitalopram for 1 hour, and then harvested for total RNA, which was extracted for real time RT-PCR specific for ABCF1 and IL-4. CT values were normalized with CT value for the housekeeping gene from the DMSO control.

SMILES | ABCF1 transcription / expression (ABCF1 [1]) | amyloid precursor protein (APP) expression [2] | ABCF1 expression (ABCF1 [3]; vs DMSO control (FIG. 1)) | difference in the expression (ABCF1 and IL-4) after drug treatment (ABCF1 [3]; 3 separate experiments) | ABCF1 transcription / expression (ABCF1 [1]; listed as psylocin)
CC(=O)Oc1cccc2[nH]ccc12 [AOI, 4-acetoxyindole] | enhance expression of ABCF1 | down regulation |  |  | 
CC(=O)Oc1cccc2[nH]cc(CCN(C)C)c12.O=C(O)/C=C/C(=O)O [APF, O-Acetyl Psilocin Fumerate] | enhance expression of ABCF1 | down regulation |  |  | 
CN(C)CCC[C@@]1(c2ccc(F)cc2)OCc2cc(C#N)ccc21 [Escitalopram] |  |  | induces ABCF1 expression | consistent with polarization towards an M2-like phenotype | 
CN(C)CCc1c[nH]c2cccc(O)c12 [psilocin, 4-hydroxy-N,N-dimethyltryptamine, reference compound] | enhance expression of ABCF1 |  |  |  | upregulate ABCF1 transcription
